Where “and” joins values, the source holds several entries; their conditions need not be identical. Identical values can stand only once.
Columns and labels:
[1] = test system: HSV-1; test: Anti-HSV-1 replication assay in Vero cells, titer by plaque assay; format: cell-based, herpes simplex virus 1; conditions: for Anti-HSV-1 Log10 suppression 50 μM / EC50 / Anti-HSV-1 Log10 suppression 5 μM: moi 0.1, 24 h; for Anti-HSV-1 Log10 suppression 50 μM / Anti-HSV-1 Log10 suppression 5 μM: relative to DMSO; for Control of HSV-1 replication after high moi infection: moi 5, 5 μM
How it was run: (§1)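 Well lysates titered by plaque assay on Vero cells versus DMSO controls; EC50 by non-linear fit from serial dilutions starting at 50 μM.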

[2] = test system: HSV-2; test: Anti-HSV-2 replication assay in Vero cells, titer by plaque assay; format: cell-based, herpes simplex virus 2; conditions: for Anti-HSV-2 Log10 suppression 50 μM / Anti-HSV-2 Log10 suppression 5 μM: relative to DMSO; for Control of HSV-2 replication after high moi infection: moi 5, 5 μM, 24 h
How it was run: as §1

[3] = target: T1, HBV RNaseH (Hepatitis B virus genotype A2 subtype adw2, UniProt P03159); test: Biochemical inhibition of HBV RNaseH (oligonucleotide-directed RNA cleavage assay); conditions: compounds at 60, 20 or 10 μM
T1 construct: One of the inventors recently produced active recombinant HBV RNase H; hexahistidine; made in house; host or cells: E. coli
How it was run: (§2)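 A DNA oligonucleotide was annealed to internally ^32P-labeled RNA, and the heteroduplex was incubated with enzyme alongside compounds at 60, 20 or 10 μM. Cleavage products were resolved by electrophoresis and detected by autoradiography, then quantified against DMSO vehicle reactions.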

[4] = target: T2, human RNaseH1 (Homo sapiens, UniProt O60930); test: Biochemical inhibition of human RNaseH1 (oligonucleotide-directed RNA cleavage assay); conditions: for Anti-Human RNaseH1: compounds at 60, 20 or 10 μM
T2 construct: hexahistidine; made in house; host or cells: E. coli
T2 sequence (O60930 1-286): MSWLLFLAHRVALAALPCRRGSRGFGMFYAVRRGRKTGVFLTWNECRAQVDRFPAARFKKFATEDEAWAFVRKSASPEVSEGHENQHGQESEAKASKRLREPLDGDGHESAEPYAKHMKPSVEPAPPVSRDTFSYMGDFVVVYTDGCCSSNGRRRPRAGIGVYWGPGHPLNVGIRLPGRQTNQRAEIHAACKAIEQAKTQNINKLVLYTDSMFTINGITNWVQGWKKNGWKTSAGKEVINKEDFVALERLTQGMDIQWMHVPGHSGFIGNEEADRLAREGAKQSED
How it was run: as §2

[5] = test system: HSV-1; test: HSV-1 replication inhibition in primary human foreskin fibroblasts; format: cell-based, herpes simplex virus 1; conditions: HFF cells; for Replication inhibition HSV-1 5 μM / Replication inhibition HSV-1 50 μM: relative to DMSO-treated control
Experimental: (§3) Anti-HSV-1 and -HSV-2 Replication Assay. Compounds to be screened were diluted in PBS supplemented to contain 2% newborn calf serum and 1% glutamine, and added in 100 μL, volume to confluent cell monolayers in 24-well cluster plates. Immediately thereafter HSV-1 and HSV-2, diluted in the supplemented PBS medium, were added to the wells in 50 μl volume such that the final concentration of compound was 50 μM and 5 μM and the multiplicity of infection was 0.1. The plates were incubated at 37° C. for 1 hour and then virus-containing inoculum was removed and the wells were washed once in PBS. Compounds, diluted to 50 μM and 5 μM in DMEM supplemented to contain 2% newborn calf serum and 1% each penicillin/streptomycin, were added at 0.5 mL/well. Plates were incubated at 37° C. an additional 23 hr, and then the plates were visually inspected through a phase contrast microscope for cytopathic effect, and for toxic effect. […] The entire contents of each well were collected by scraping. Samples were frozen at −80° C., and then subsequently thawed, sonicated, and infectious virus titer was determined by standard plaque assay on Vero cell monolayers. Because the compounds were dissolved at 10 mM in 100% DMSO, equivalent dilutions of DMSO were added to additional wells as a control for effects of the diluent. Each experiment was repeated once. EC50 values were determined as above except that serial dilutions of the compound to be tested were prepared starting at 50 μM. The inhibitory values were calculated by non-linear curve-fitting in GraphPad Prism.
(§4) Inhibition of viral replication was next assessed in human foreskin fibroblasts (HFF) to determine whether NTS inhibitors could block HSV-1 and HSV-2 replication in a physiologically relevant, primary human cell type. […] Viral yields 24 hours post-infection were measured by plaque assay.

[6] = test system: HSV-2; test: HSV-2 replication inhibition in primary human foreskin fibroblasts; format: cell-based, herpes simplex virus 2; conditions: for Replication inhibition HSV-2 5 μM / Replication inhibition HSV-2 50 μM / EC50: HFF cells; for Replication inhibition HSV-2 5 μM / Replication inhibition HSV-2 50 μM: relative to DMSO-treated control
Experimental: as §3, §4

[7] = test system: HFFs; test: Neutral red cytotoxicity assay in uninfected HFFs (14 day, with CPE assay); format: cell-based, human; conditions: 14 days
Experimental: Anti-HCMV CPE inhibition and cytotoxicity assays. HFFs were infected with HCMV strain AD169 in the presence of serial dilutions of the compounds from 0.0192 to 60 μM. Fourteen days later the monolayers were stained with crystal violet, and retained cell density was quantified using a multiplate autoreader (BioTek). Cytotoxicity was measured the same way, except that the cells were uninfected and neutral red internalization by viable cells was measured.
Antiviral efficacy against HCMV. The ability of select HSV inhibitors to inhibit replication of another major human herpesvirus pathogen, human cytomegalovirus (HCMV) (65) was tested. This was based on the inhibitors strong suppression of HSV-1 and HSV-2 and the prediction that other members of the herpesvirus family would be sensitive to NTS inhibitors due to their shared DNA replication mechanism. Compounds #41, 46, 49, 55, 56, and 59 and the FDA-approved anti-HCMV drug ganciclovir were evaluated with crystal violet CPE and neutral red toxicity assays in HFFs. HFFs were infected with HCMV in the presence of serial dilutions of the compounds that were most inhibitory for HSVs. After 14 days the monolayers were stained and cell density was determined by OD reading. Compound cytotoxicity for uninfected cells was determined in the same manner except that neutral red uptake by viable cells was measured. […] The TI values for the four NTS inhibitors of HCMV ranged from 4 for compound #41 to 38 for #56. Therefore, NTS inhibitors can suppress HCMV replication in addition to inhibiting the HSVs.

[8] = Human alphaherpesvirus 1, Vero, 24 h

T1 sequence (P03159 693-845): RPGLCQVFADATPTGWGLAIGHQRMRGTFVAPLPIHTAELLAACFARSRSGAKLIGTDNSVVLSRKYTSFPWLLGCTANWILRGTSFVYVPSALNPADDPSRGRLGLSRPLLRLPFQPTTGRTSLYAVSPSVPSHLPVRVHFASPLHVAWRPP

| Compound | Anti-HSV-1 Log10 suppression 50 μM [1] [log10] | Anti-HSV-2 Log10 suppression 50 μM ([2]; moi 0.1, 24 h) [log10] | Anti-HBV RNaseH [3] | Anti-Human RNaseH1 [4] | Replication inhibition HSV-1 5 μM [5] [log10] | Replication inhibition HSV-1 50 μM [5] [log10] | Replication inhibition HSV-2 5 μM ([6]; 5 μM) [log10] | Replication inhibition HSV-2 50 μM [6] [log10] | Anti-HSV-1 Log10 suppression 5 μM ([1]; 5 μM) [log10] | Control of HSV-1 replication after high moi infection ([1]; 24 h) | Anti-HSV-2 Log10 suppression 5 μM ([2]; 5 μM, moi 0.1, 24 h) [log10] | Control of HSV-2 replication after high moi infection [2] | EC50 [1] | EC50 ([2]; moi 0.1, 24 h) | EC50 [5] [nM] | EC50 [6] [nM] | CC50 [7] [nM] | other results |
| --- | --- | --- | --- | --- | --- | --- | --- | --- | --- | --- | --- | --- | --- | --- | --- | --- | --- | --- |
| Cc1cc(C2CCCCC2)n(O)c(=O)c1 [Compound 41, Ciclopirox, reference compound] | 5.23 | 5.25 | − (no inhibition at 60 μM) | + (inhibition at 60 μM) | 5.06 | 5.57 | 5.21 | 4.97 |  |  |  |  |  |  |  |  |  | EC50 [1, 8]: 270 nM; Inhibition of HSV-1 replication (in words) ([1]; primary screening): strong inhibitor; EC50 ([2]; Human alphaherpesvirus 2, moi 0.1, 24 h): 450 nM; Inhibition of HSV-2 replication (in words) ([2]; primary screening): strong inhibitor; EC50 ([5]; Human alphaherpesvirus 1): 140 nM; Suppression of HSV-2 replication, ciclopirox versus its salt ([6]; HFFs, various concentrations, 24 hours): equivalent extent; EC50 ([6]; Human alphaherpesvirus 2): 1000 nM; CC50, neutral red [7]: measurable toxicity |
| Nc1nc2c(ncn2COCCO)c(=O)[nH]1 [ACV, Acyclovir, reference compound] | 5.85 | 5.25 | − (no inhibition at 60 μM) | − (no inhibition at 60 μM) | 5.25 | 6.69 | 4.01 | 6.27 | 4.49 | efficiently controlled virus replication | 3.91 | efficiently controlled virus replication |  |  |  |  |  | EC50 [1, 8]: 210 nM; EC50 ([5]; Human alphaherpesvirus 1): 120 nM; EC50 ([6]; Human alphaherpesvirus 2): 120 nM |
| CCOc1ccc(-c2c3cc(O)c(=O)cc-3oc3cc(O)c(O)cc23)cc1 [Compound 30] | 4.02 | 4.55 | +++ (inhibition at 10 μM) | +++ (inhibition at 10 μM) | 3.22 | 5.23 | 2.04 | 6.68 | 1.39 |  | 3.69 |  | 5930 nM and 4200 nM | 3930 nM | 320 | 520 |  | Fold more active against HSV-2 than HSV-1 ([2]; 5 μM): > 100 fold; Concentration giving inhibition of purified human RNaseH 1 [4]: < 60 µM; Fold less effective inhibition of HSV-2 in HFF cells than in Vero cells ([6]; 5 μM): ~45 fold |
| CC(C)=CCc1ccc(O)c(=O)cc1C(C)C [Compound 49, Nootkatin] | 4.72 | 5.05 | − (no inhibition at 60 μM) | − (no inhibition at 60 μM) | 5.79 | 6.27 | 5.47 | 5.98 |  |  |  |  | 240 nM | 190 nM and 220 nM | 740 | 1230 | > 60000 |  |
| CC(=O)NC(CCc1ccc(Cl)c(Cl)c1)c1cccc(O)c(=O)c1 (stereo not shown) [Compound 55] | 5.04 | 5.06 | + (inhibition at 60 μM) | + (inhibition at 60 μM) | 4.99 | 6.17 | 3.94 | 6.55 |  | efficiently controlled virus replication |  | efficiently controlled virus replication | 420 nM | 1070 nM | 2810 | 1670 | > 60000 |  |
| CC(C)c1ccc(O)c(=O)c(O)c1 [Compound 46, Beta-thujaplicinol] | 4.81 | 5.12 | +++ (inhibition at 10 μM) | + (inhibition at 60 μM) | 5.83 | 6.39 | 5.17 | 5.83 |  | efficiently controlled virus replication |  | efficiently controlled virus replication | 1940 nM | 1690 nM | 970 | 380 | > 60000 |  |
| C=C(C)C1CCc2c(c(C)cc(O)c(=O)c2O)C1 (stereo not shown) [Compound 56, Manicol] | 5.82 | 5.79 | +++ (inhibition at 10 μM) | − (no inhibition at 60 μM) | 5.72 | 6.39 | 5.93 | 6.80 | 5.14 |  | 5.95 |  | 350 nM | 580 nM | 240 | 550 | 38400 | HSV-1 replication inhibition, fold ([1]; 5 μM): 138,000 fold; HSV-2 replication inhibition, fold ([2]; 5 μM): 891,000 fold; CC50, neutral red [7]: measurable toxicity |
